Laboratory results taken from US10233186B2, “Inhibitors of activin receptor-like kinase” (BLUEPRINT MEDICINES CORPORATION, priority 2016, dated 2019).
pIC50: −log10 of the molar value.

Tests used:
human ALK2 R206H = target: T1, human ALK2 R206H (Homo sapiens, UniProt Q04771, R206H); experiment: Cell-based ALK2-R206H cell activity assay (Smad1-Ser463/Ser465 phosphorylation by AlphaLISA in HEK293-ALK2-R206H cells); conditions: read-out: Cell Line (Cell Assay IC50)
T1 construct: expressed in transfected cells; host or cells: HEK293 (ATCC CRL1573), lentivirus transduction, blasticidin selection
T1 sequence (Q04771 21-509 R206H): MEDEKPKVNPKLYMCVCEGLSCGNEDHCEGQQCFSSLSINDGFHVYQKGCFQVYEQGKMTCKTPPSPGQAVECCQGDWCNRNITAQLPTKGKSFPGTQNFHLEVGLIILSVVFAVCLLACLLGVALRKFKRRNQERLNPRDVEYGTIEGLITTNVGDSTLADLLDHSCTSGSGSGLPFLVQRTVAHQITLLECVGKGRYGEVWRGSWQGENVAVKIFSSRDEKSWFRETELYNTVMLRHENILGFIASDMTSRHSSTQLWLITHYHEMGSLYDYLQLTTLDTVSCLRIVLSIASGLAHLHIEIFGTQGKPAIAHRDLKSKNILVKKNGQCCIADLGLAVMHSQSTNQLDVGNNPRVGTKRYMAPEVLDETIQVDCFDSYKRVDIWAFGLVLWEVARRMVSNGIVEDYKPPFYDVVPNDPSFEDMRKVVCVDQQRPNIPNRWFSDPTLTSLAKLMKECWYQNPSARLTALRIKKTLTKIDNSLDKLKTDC
Summary of the method: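 Stable HEK293 cells expressing C-terminally FLAG-tagged human ALK2 R206H (lentiviral, blasticidin-selected) were treated with compounds in 10-point, 3-fold dilutions from 10 μM or 1 μM top, in duplicate. Smad1 Ser463/Ser465 phosphorylation was read by AlphaLISA.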

[1] = target: T2, ALK2 R206H (GST-tagged mutant ALK2) (Homo sapiens, UniProt Q04771, R206H); experiment: ALK binding assay (LANTHASCREEN TR-FRET competitive binding, displacement of Kinase Tracer 178); conditions: ALK2 R206H, LANTHASCREEN TR-FRET competitive binding; read-out: Binding Assay (IC50)
T2 construct: purchased Carna Bioscience or ThermoFisher 09-148 or PV6232
T2 sequence (Q04771 21-509 R206H): T1 sequence (Q04771 21-509 R206H)

pIC50 (human ALK2 R206H)	pIC50 [1]	SMILES
6.30 to 7.00	> 8.00	CC[C@H](C)NC(=O)N1CCN(c2ccnn3cc(-c4ccc(C5CCN(C(C)C)CC5)cc4)cc23)CC1 [Compound 393]
> 7.00	> 8.00	CCNC(=O)N1CCN(c2ccnn3cc(-c4ccc(C5(OC)CCCN(C(C)C)C5)cc4)cc23)CC1 (centres unmarked) [Compound 400]
6.30 to 7.00	> 8.00	COCCOC(=O)N1CCN(c2ccnn3cc(-c4ccc(C5CCN(C(C)C)CC5)cc4)cc23)CC1 [Compound 401]
> 7.00	> 8.00	CC(C)N1CC(c2ccc(-c3cc4c(N5CCN(C(=O)[C@H]6CC[C@H](C#N)CC6)CC5)ccnn4c3)cc2)C1 [Compound 406]
> 7.00	> 8.00	CC(C)N1CCC(c2ccc(-c3cc4c(N5CCN(C(=O)[C@H]6C[C@@H]6C#N)[C@H](C)C5)ccnn4c3)cc2)CC1 [Compound 407]
> 7.00	> 8.00	CC(C)N1CCC[C@@H](c2ccc(-c3cc4c(N5CCN(C(=O)[C@H]6C[C@H](C#N)C6)CC5)ccnn4c3)cc2)C1 [Compound 408]
> 7.00	> 8.00	CC(C)N1CCC[C@H](c2ccc(-c3cc4c(N5CCN(C(=O)[C@H]6C[C@H](C#N)C6)CC5)ccnn4c3)cc2)C1 [Compound 409]
6.30 to 7.00	> 8.00	CC(C)N1CCCC(c2ccc(-c3cc4c(N5CCN(C(=O)N6CC(C#N)C6)CC5)ccnn4c3)cc2)C1 (centres unmarked) [Compound 411]
> 7.00	> 8.00	CCN1CCC(c2ccc(-c3cc4c(N5CCN(C(=O)C6CCC(C)CC6)CC5)ccnn4c3)cc2)CC1 (centres unmarked) [Compound 415]
> 7.00	> 8.00	CC(C)N1CC[C@H](c2ccc(-c3cc4c(N5CCN(C(=O)[C@H]6CC[C@H](O)CC6)CC5)ccnn4c3)cc2)C1 [Compound 418]
> 7.00	> 8.00	CC(C)N1CC[C@@H](c2ccc(-c3cc4c(N5CCN(C(=O)[C@H]6CC[C@H](O)CC6)CC5)ccnn4c3)cc2)C1 [Compound 419]
> 7.00	> 8.00	CC(C)N1CCC(c2ccc(-c3cc4c(N5CCN(C(=O)[C@H]6C[C@](C)(O)C6)CC5)ccnn4c3)cc2)CC1 [Compound 420]
> 7.00	> 8.00	CC(C)N1CCC(c2ccc(-c3cc4c(N5CCN(C(=O)[C@H]6C[C@@](C)(O)C6)CC5)ccnn4c3)cc2)CC1 [Compound 421]
6.30 to 7.00	> 8.00	CCN1CCC(c2ccc(-c3cc4c(N5CCN(C(=O)N6CCC(O)CC6)CC5)ccnn4c3)cc2)CC1 [Compound 423]
6.30 to 7.00	> 8.00	CCN1CCC(c2ccc(-c3cc4c(N5CCN(C(=O)N6CCC(C#N)CC6)CC5)ccnn4c3)cc2)CC1 [Compound 428]
> 7.00	> 8.00	CC(C)N1CCC(c2ccc(-c3cc4c(N5CCN(C(=O)OCC(F)(F)F)CC5)ccnn4c3)cc2)CC1 [Compound 430]
6.30 to 7.00	> 8.00	CCN1CCC(c2ccc(-c3cc4c(N5CCN(C(=O)C6CCC(C)(O)CC6)CC5)ccnn4c3)cc2)CC1 (centres unmarked) [Compound 431]
> 7.00	> 8.00	CC(C)N1CCC[C@@H](c2ccc(-c3cc4c(N5CCN(C(=O)[C@H]6CC[C@H](C#N)CC6)CC5)ccnn4c3)cc2)C1 [Compound 434]
> 7.00	> 8.00	CC(C)N1CCC[C@H](c2ccc(-c3cc4c(N5CCN(C(=O)[C@H]6CC[C@H](C#N)CC6)CC5)ccnn4c3)cc2)C1 [Compound 435]
> 7.00	> 8.00	CCN1CCC(c2ccc(-c3cc4c(N5CCN(C(=O)C6CC(O)(C(F)(F)F)C6)CC5)ccnn4c3)cc2)CC1 (centres unmarked) [Compound 445]

The remaining lines, values behind:

SMILES	pIC50 (human ALK2 R206H)	pIC50 [1]
CCN1CCN(CCOc2ccc(-c3cc4c(N5CCN(C(=O)C6CC6)CC5)ccnn4c3)cc2)CC1 [Compound 390, cyclopropyl(4-(6-(4-(2-(4-ethylpiperazin-1-yl)ethoxy)phenyl)pyrrolo[1,2-b]pyridazin-4-yl)piperazin-1-yl)methanone]	6.30 to 7.00	7.30 to 8.00
CCN1CCN(c2ccc(-c3cc4c(N5CCN(C(=O)C6CC(C)(O)C6)CC5)ccnn4c3)cc2)CC1 (centres unmarked) [Compound 391]	> 7.00	> 8.00
CCNC(=O)N1CCN(c2ccnn3cc(-c4ccc(C5(OC)CCN(C(C)C)CC5)cc4)cc23)CC1 [Compound 399]	> 7.00	> 8.00
CCN1CCN(c2ccc(-c3cc4c(N5CCN(C(=O)C6CC(F)(F)C6)CC5)ccnn4c3)cc2)CC1 [Compound 402]	6.30 to 7.00	> 8.00
CCN1CC2(C1)CN(c1ccc(-c3cc4c(N5CCN(C(=O)N6CC(C#N)C6)CC5)ccnn4c3)cc1)C2 [Compound 404]	6.30 to 7.00	> 8.00
CCN1CCC(c2ccc(-c3cc4c(N5CCN(C(=O)N6CC(C#N)C6)[C@H](C)C5)ccnn4c3)cc2)CC1 [Compound 412]	> 7.00	> 8.00
CC(C)N1CCN(c2ccc(-c3cc4c(N5CCN(C(=O)[C@H]6C[C@H](C#N)C6)CC5)ccnn4c3)cc2)CC1 [Compound 413]	> 7.00	> 8.00
CCN1CCN(c2ccc(-c3cc4c(N5CCN(C(=O)[C@H]6CC[C@H](O)CC6)CC5)ccnn4c3)cc2)CC1 [Compound 422]	> 7.00	> 8.00
CC(C)N1CC2(CN(c3ccc(-c4cc5c(N6CCN(C(=O)[C@H]7C[C@H](C#N)C7)CC6)ccnn5c4)cc3)C2)C1 [Compound 426]	> 7.00	> 8.00
CCN1CCN(c2ccc(-c3cc4c(N5CCN(C(=O)C6CC6)CC5)ccnn4c3)c(OC(F)F)c2)CC1 [Compound 427]	6.30 to 7.00	> 8.00
CCN1CCN(c2ccc(-c3cc4c(N5CCN(C(=O)[C@H]6CC[C@H](C#N)CC6)CC5)ccnn4c3)cc2)CC1 [Compound 429]	> 7.00	> 8.00
CC(C)N1CCC(c2ccc(-c3cc4c(N5CCN(C(=O)[C@H]6CC[C@H](O)CC6)CC5)ccnn4c3)nc2)CC1 [Compound 432]	> 7.00	> 8.00
CC(C)N1CCN(c2ccc(-c3cc4c(N5CCN(C(=O)[C@H]6CC[C@H](C#N)CC6)CC5)ccnn4c3)cc2)CC1 [Compound 436]	> 7.00	> 8.00
CC(C)N1CCC(c2ccc(-c3cc4c(N5CCN(C(=O)[C@H]6CC[C@H](C#N)CC6)CC5)ccnn4c3)nc2)CC1 [Compound 437]	> 7.00	> 8.00
CC(C)N1CC2(CN(c3ccc(-c4cc5c(N6CCN(C(=O)[C@H]7CC[C@H](O)CC7)CC6)ccnn5c4)cc3)C2)C1 [Compound 441]	> 7.00	> 8.00
CC(C)N1CC2(CN(c3ccc(-c4cc5c(N6CCN(C(=O)[C@H]7CC[C@H](C#N)CC7)CC6)ccnn5c4)cc3)C2)C1 [Compound 442]	> 7.00	> 8.00
CCN1CCN(c2ccc(-c3cc4c(N5CCN(C(=O)C6(c7cccc(Cl)c7)CC6)CC5)ccnn4c3)cc2)CC1 [Compound 447]	< 6.30	7.30 to 8.00
CCOC(=O)N1CCN(c2ccnn3cc(-c4cnc(N5CCN(C(C)C)CC5)cn4)cc23)CC1 [Compound 448, ethyl 4-(6-(5-(4-isopropylpiperazin-1-yl)pyrazin-2-yl)pyrrolo[1,2-b]pyridazin-4-yl)piperazine-1-carboxylate]	6.30 to 7.00	> 8.00
O=C(C1CC1)N1CCN(c2ccnn3cc(-c4ccc([C@H]5CCCN5)nc4)cc23)CC1 [Compound 451]	> 7.00	> 8.00
O=C(C1CC1)N1CCN(c2ccnn3cc(-c4ccc(C5CCCN5)cn4)cc23)CC1 (centres unmarked) [Compound 452]	> 7.00	> 8.00
O=C(C1CC1)N1CCN(c2ccnn3cc(-c4ccc(C5CCCN5)cn4)cc23)CC1 (centres unmarked) [Compound 453]	> 7.00	> 8.00
O=C(C1CC1)N1CCN(c2ccnn3cc(-c4ccc(C5CCCN5)cn4)cc23)CC1 (centres unmarked) [Compound 454]	6.30 to 7.00	> 8.00
CC(N)(CO)c1ccc(-c2cc3c(N4CCN(C(=O)C5CC5)CC4)ccnn3c2)cc1 (centres unmarked) [Compound 455]	> 7.00	> 8.00
CCNC(=O)N1CCN(c2ccnn3cc(-c4ccc([C@@H]5CCCN5)nc4)cc23)CC1 [Compound 456]	6.30 to 7.00	> 8.00
CCNC(=O)N1CCN(c2ccnn3cc(-c4ccc([C@H]5CCCN5)nc4)cc23)CC1 [Compound 457]	6.30 to 7.00	> 8.00
C[C@]1(c2ccc(-c3cc4c(N5CCN(C(=O)C6CC6)CC5)ccnn4c3)cc2)CCCN1 [Compound 459]	> 7.00	> 8.00
C[C@@]1(c2ccc(-c3cc4c(N5CCN(C(=O)C6CC6)CC5)ccnn4c3)cc2)CCCN1 [Compound 460]	> 7.00	> 8.00
N[C@@H]1CCN(c2ccc(-c3cc4c(N5CCN(C(=O)C6CC6)CC5)ccnn4c3)cc2)C1 [Compound 462]	6.30 to 7.00	> 8.00
CC1(c2ccc(-c3cc4c(N5CCN(C(=O)C6CC6)CC5)ccnn4c3)nc2)CCCN1 (centres unmarked) [Compound 463]	> 7.00	> 8.00
